In patent US20050147662A1, “Compounds and compositions for delivering active agents” (Emisphere Technologies, Inc., priority 2003, published 2005):

melting point: 85 to 88 °C
Structure (SMILES): CN(CCCCCCCC(=O)O)C(=O)c1ccccc1O [Compound 1, 8-[(2-Hydroxy-benzoyl)-methyl-amino]-octanoic acid]
